In patent US6543181B1, “Fruit fly attractant compositions” (Iowa State University Research Foundation, Inc., priority 2001, dated 2003):

Experiments:
[1] = tested on: Drosophila melanogaster adult fruit flies; test: Attraction-trapant behavioral bioassay (cup traps in screen cages); type: in vivo; conditions: for Catches per day (mean ± S.E.): 100-150 flies released
Procedure: Three different sizes of screen cages (w×h×l: 26 cm×26 cm×30 cm; 48×61×61; and 88×36×46) were used for the trapping experiments. Trapping experiments were carried out either in the laboratories, or in nearby green houses.
The attraction-trapant assay traps were constructed from cylindrical, clear plastic jelly cups (4.0 cm I.D. at top, 3.0 cm I.D. bottom; 2.5 cm high) with a tightly fitting paper lid. The lids were pre-drilled with a hole having a diameter of about 2 mm, which was the only aperture through which volatiles from candidate attractants could emanate, and also the only entrance through which attracted flies could enter the trap chamber. In all experiments, a 1-cm-long, 0.5-cm-diameter piece of cotton dental wick was used as the substrate onto which different compositions of potential attractants were loaded for testing, and then the wick was placed in the bottom of the cup and the lid then sealed in position at the beginning of testing.
Traps containing a series of compositions to be compared were tested in a randomized, complete-block design, with one replicate of a treatment series deployed per cage. The traps were placed in an array with usually approximately 15 cm between traps. If three treatments were to be compared (including control), the array took the form of a triangle. If there were four treatments, then the four trap-cups formed a square.
No glue or toxicant was used inside the traps, and captures depended on the ability of the attractant-trapant composition to both attract the fruit flies as well as retain them in the chamber by keeping them from wandering back to the entrance hole on the lid and exiting through it. During these assays, observations of the fruit flies' behavior were often made, and they could routinely be observed flying slowly around the cage before descending to one of the traps on the floor of the cage, landing on it, and then walking more or less directly to the hole on the lid and entering the trap.
[…] […] During this period the trap positions were rotated at several hour intervals in order to minimize any possible trap position effects.

[2] = tested on: Drosophila melanogaster antennae; design: key to the marks not given beside the values
[3] = Table 3, 10 mg in cup trap, traps checked daily for 5 days
[4] = Table 4, ratios of acetic acid and 2-phenylethanol, total lure 10 mg, no water added, checked daily for 5 days

SMILES	Catches per day (mean ± S.E.) [1, 3]	also measured
OCCc1ccccc1 [2-phenylethanol]	3.15 ± 1.63	Catches per day (mean ± S.E.) ([1]; Table 3, 1 mg in cup trap, traps checked daily for 5 days): 0.5 ± 0.29; Catches per day (mean ± S.E.) ([1]; Table 3, 5 mg in cup trap, traps checked daily for 5 days): 1.25 ± 0.63; Catches per day (mean ± S.E.) [1, 4]: 0 ± 0
CC(=O)OCCc1ccccc1 [2-phenylethyl acetate]	1.87 ± 0.81	
C=CCc1ccc(OC)c(OC)c1 [1,2-dimethoxy-4-(2-propenyl)-benzene]		EAG activity [2]: +++
CCOC(=O)Cc1ccccc1 [ethylphenyl acetate]	1.5 ± 0.5	
CCOC(=O)C=Cc1ccccc1 [Ethyl cinnamate]	0.75 ± 0.49	
CC(=O)OCc1ccccc1 [phenylmethyl acetate]	0.5 ± 0.27	
CCCCOC(C)=O [butyl acetate]		EAG activity [2]: +++
CCOC(=O)c1ccccc1 [ethyl benzoate]	0.25 ± 0.16	
CCOC(=O)c1ccccc1O [ethyl salicylate]	0.37 ± 0.18	
CC(=O)O [Acetic acid]		Catches per day (mean ± S.E.) [1, 4]: 3.0 ± 1.08; Trap catches ([1]; Table 13, effect of ethyl acetate, 8 replicates): 0.25 ± 0.16
